According to paper PMC10096344 (Molecules, 2023):

How the values were obtained:
[1] = Pharmacokinetics measurement; format: in vivo; details: SD rats; for plasma half-life: single dose
[2] = test system: P. aeruginosa (ATCC27853); assay: Anti-bacterial activity, inhibition zone diameter on agar; format: cell-based, Pseudomonas aeruginosa; details: LP4C 5, 10, 50, 100, 200 μg/mL
Method: P. aeruginosa (ATCC27853) was cultured in 3 mL LB culture medium, shaken at 220 rpm for 12 h at 37 °C and diluted to 1 × 10^6 CFU/mL. The culture disk was coated with 1% agar, and 100 μL bacterial suspension was added to the agar in the disk evenly. […] LP4C or reference antibiotics were then added in each hole. The disk was cultured for 12–16 h at 37 °C; the result was then observed and the inhibition zone diameter was measured.

S. typhimurium TA97 = assay: Bacterial reverse mutation assay (Ames assay); format: cell-based, Salmonell typhimurium; details: n = 3
Method: (§1) A sample of 2-aminofluorene (10 μg/plate) was used for TA97, TA98, TA100 +S9 test strains, while 1,8-dihydroxyanthraquinone (60 μg/plate) was used for the TA102 +S9 test strain. The histidine was added with the same amount. The plates were incubated for 48 h at 37 °C; the number of colonies was then counted per plate.

S. typhimurium TA100 = assay: Bacterial reverse mutation assay (Ames assay); format: cell-based, Salmonell typhimurium; details: n = 3
Method: as §1

S. typhimurium TA98 = assay: Bacterial reverse mutation assay (Ames assay); format: cell-based, Salmonell typhimurium; details: n = 3
Method: as §1

S. typhimurium TA102 = assay: Bacterial reverse mutation assay (Ames assay); format: cell-based, Salmonell typhimurium; details: n = 3
Method: as §1

[3] = test system: P. aeruginosa (ATCC27853) biofilm; assay: Bacterial biofilm formation (FITC staining, crystal violet staining); format: cell-based, Pseudomonas aeruginosa
Method: The bacterial biofilm growth and measurement was performed according to our previously reported method. Briefly, P. aeruginosa (ATCC27853) was cultured in the tube with nutrient broth containing 2% (w/v) glucose, shaken at 220 rpm for 12 h at 37 °C. The suspension was diluted to 1 × 10^6 CFU/mL and added to 96-well plates, the bacteria was cultured for 24 h at 37 °C for biofilm growth and the planktonic bacterial of each well was removed by PBS rinsing three times. To observe the biofilm formation, the fluorescein isothiocyanate (FITC) was added into the plates and incubated for 2 h at 37 °C; the labeled biofilm was then washed by PBS and visualized under the fluorescence microscopy (Olympus CKX53, Tokyo, Japan). The measurement of biofilm was performed according to the following procedure: the mature biofilm was fixed with 150 μL methanol and left to air dry, then stained with 150 μL of 1% (w/v) crystal violet solution for 15 min at room temperature. The plate was rinsed with PBS three times and 150 μL of glacial acetic acid was added to each well; the optical density was measured at 630 nm optical density using a microplate reader (Bio-Tek ELX800, Berten, USA).

[4] = test system: HUVEC (human umbilical vein endothelial cell); assay: Cytotoxicity test, CCK-8; format: cell-based
Method: (§2) Optical density was calculated by the microplate reader (BioTek flx800, Berten, USA).

[5] = test system: CCC-HHM-2 (human embryonic myocardial tissue cell); assay: Cytotoxicity test, CCK-8; format: cell-based
Method: as §2

[6] = test system: S. typhimurium strains TA97, TA98, TA100 and TA102; assay: Bacterial reverse mutation assay (Ames assay), all strains; format: cell-based, Salmonell typhimurium
Method: as §1

[7] = test system: pyr genes (pyrA, pyrB, pyrC, pyrD, pyrE and pyrF); assay: RT-PCR (qPCR) of pyr genes; format: cell-based, Pseudomonas aeruginosa; details: LP4C 10 μg/mL vs control
Method: The total RNA was isolated from P. aeruginosa cultures, and qPCR amplification was performed according to the instrument of the quantitative PCR system (Stratagene Mx3005P, Agilent, USA); the thermal cycler was then initiated by denaturation procedure for 2 min at 93 °C followed by 40 cycles of 1 min at 93 °C and 2 min at 55 °C. The gene-specific PCR primers were listed in Supplementary Table S3. The relative expression of genes was analyzed by the 2^−ΔΔCt method with normalization to gyrB level.

[8] = test system: P. aeruginosa (ATCC27853); assay: Transcriptome assay (RNA-seq); format: cell-based, Pseudomonas aeruginosa; details: LP4C 10 μg/mL vs Vehicle Treatment Group
Method: The RNA sequencing was performed using Illumina HiSeq4000 according to the operation instructions (Illumina, CA, USA). Differential gene expression analysis of LP4C treatment and control groups was conducted; KEGG signaling pathway analysis was performed to map the connection of multiple genes.

[9] = 200 μg/mL vs anti-biofilm concentration of LP4C
[10] = LP4C under 200 μg/mL, 24 h, vs vehicle

N#CC1=C(N)Oc2c(c(=O)oc3ccccc23)C1c1cc(C(F)(F)F)cc(C(F)(F)F)c1 (stereo not drawn) [LP4C]
time during which blood concentration increased after administration ([1]; intragastric 10 mg/kg): ≤ 4 h | bioavailability ([1]; intragastric 10 mg/kg vs intravenous 5 mg/kg): 46.35% | plasma half-life ([1]; intragastric 10 mg/kg): 11 ± 1.26 h | time during which serum concentration declined rapidly ([1]; intravenous 5 mg/kg): 10 to 60 min | plasma half-life ([1]; intravenous 5 mg/kg): 14 ± 3.05 h | growth inhibition / bactericidal activity (inhibition zone) [2]: no bactericidal activity | number of bacterial revertant colonies (S. typhimurium TA97; LP4C 50 μg/plate, TA97, +S9, mean ± SD): 142 ± 7.13 | number of bacterial revertant colonies (S. typhimurium TA97; LP4C 50 μg/plate, TA97, −S9, mean ± SD): 123 ± 5.92 | number of bacterial revertant colonies (S. typhimurium TA97; LP4C 200 μg/plate, TA97, +S9, mean ± SD): 140 ± 8.55 | number of bacterial revertant colonies (S. typhimurium TA97; LP4C 200 μg/plate, TA97, −S9, mean ± SD): 122 ± 7.42 | number of bacterial revertant colonies (S. typhimurium TA97; LP4C 1000 μg/plate, TA97, +S9, mean ± SD): 142 ± 5.96 | number of bacterial revertant colonies (S. typhimurium TA97; LP4C 1000 μg/plate, TA97, −S9, mean ± SD): 119 ± 8.52 | number of bacterial revertant colonies (S. typhimurium TA97; LP4C 2000 μg/plate, TA97, +S9, mean ± SD): 140 ± 6.47 | number of bacterial revertant colonies (S. typhimurium TA97; LP4C 2000 μg/plate, TA97, −S9, mean ± SD): 120 ± 8.53 | number of bacterial revertant colonies (S. typhimurium TA97; LP4C 5000 μg/plate, TA97, +S9, mean ± SD): 141 ± 7.65 | number of bacterial revertant colonies (S. typhimurium TA97; LP4C 5000 μg/plate, TA97, −S9, mean ± SD): 112 ± 9.83 | number of bacterial revertant colonies (S. typhimurium TA100; LP4C 50 μg/plate, TA100, +S9, mean ± SD): 130 ± 7.68 | number of bacterial revertant colonies (S. typhimurium TA100; LP4C 50 μg/plate, TA100, −S9, mean ± SD): 117 ± 5.96 | number of bacterial revertant colonies (S. typhimurium TA100; LP4C 200 μg/plate, TA100, +S9, mean ± SD): 133 ± 7.34 | number of bacterial revertant colonies (S. typhimurium TA100; LP4C 200 μg/plate, TA100, −S9, mean ± SD): 116 ± 6.42 | number of bacterial revertant colonies (S. typhimurium TA100; LP4C 1000 μg/plate, TA100, +S9, mean ± SD): 131 ± 6.75 | number of bacterial revertant colonies (S. typhimurium TA100; LP4C 1000 μg/plate, TA100, −S9, mean ± SD): 120 ± 8.33 | number of bacterial revertant colonies (S. typhimurium TA100; LP4C 2000 μg/plate, TA100, +S9, mean ± SD): 132 ± 6.95 | number of bacterial revertant colonies (S. typhimurium TA100; LP4C 2000 μg/plate, TA100, −S9, mean ± SD): 120 ± 5.71 | number of bacterial revertant colonies (S. typhimurium TA100; LP4C 5000 μg/plate, TA100, +S9, mean ± SD): 130 ± 5.69 | number of bacterial revertant colonies (S. typhimurium TA100; LP4C 5000 μg/plate, TA100, −S9, mean ± SD): 122 ± 7.67 | number of bacterial revertant colonies (S. typhimurium TA98; LP4C 50 μg/plate, TA98, +S9, mean ± SD): 32 ± 3.6 | number of bacterial revertant colonies (S. typhimurium TA98; LP4C 50 μg/plate, TA98, −S9, mean ± SD): 26 ± 2.2 | number of bacterial revertant colonies (S. typhimurium TA98; LP4C 200 μg/plate, TA98, +S9, mean ± SD): 33 ± 4.1 | number of bacterial revertant colonies (S. typhimurium TA98; LP4C 200 μg/plate, TA98, −S9, mean ± SD): 26 ± 4.8 | number of bacterial revertant colonies (S. typhimurium TA98; LP4C 1000 μg/plate, TA98, +S9, mean ± SD): 32 ± 4.7 | number of bacterial revertant colonies (S. typhimurium TA98; LP4C 1000 μg/plate, TA98, −S9, mean ± SD): 25 ± 5.4 | number of bacterial revertant colonies (S. typhimurium TA98; LP4C 2000 μg/plate, TA98, +S9, mean ± SD): 32 ± 5.8 | number of bacterial revertant colonies (S. typhimurium TA98; LP4C 2000 μg/plate, TA98, −S9, mean ± SD): 26 ± 6.7 | number of bacterial revertant colonies (S. typhimurium TA98; LP4C 5000 μg/plate, TA98, +S9, mean ± SD): 31 ± 5.2 | number of bacterial revertant colonies (S. typhimurium TA98; LP4C 5000 μg/plate, TA98, −S9, mean ± SD): 24 ± 3.5 | number of bacterial revertant colonies (S. typhimurium TA102; LP4C 50 μg/plate, TA102, +S9, mean ± SD): 276 ± 11.2 | number of bacterial revertant colonies (S. typhimurium TA102; LP4C 50 μg/plate, TA102, −S9, mean ± SD): 260 ± 10.3 | number of bacterial revertant colonies (S. typhimurium TA102; LP4C 200 μg/plate, TA102, +S9, mean ± SD): 281 ± 9.36 | number of bacterial revertant colonies (S. typhimurium TA102; LP4C 200 μg/plate, TA102, −S9, mean ± SD): 271 ± 5.68 | number of bacterial revertant colonies (S. typhimurium TA102; LP4C 1000 μg/plate, TA102, +S9, mean ± SD): 279 ± 10.6 | number of bacterial revertant colonies (S. typhimurium TA102; LP4C 1000 μg/plate, TA102, −S9, mean ± SD): 267 ± 8.35 | number of bacterial revertant colonies (S. typhimurium TA102; LP4C 2000 μg/plate, TA102, +S9, mean ± SD): 280 ± 11.3 | number of bacterial revertant colonies (S. typhimurium TA102; LP4C 2000 μg/plate, TA102, −S9, mean ± SD): 262 ± 8.44 | number of bacterial revertant colonies (S. typhimurium TA102; LP4C 5000 μg/plate, TA102, +S9, mean ± SD): 273 ± 12.6 | number of bacterial revertant colonies (S. typhimurium TA102; LP4C 5000 μg/plate, TA102, −S9, mean ± SD): 256 ± 9.21 | biofilm formation, crystal violet staining ([3]; LP4C 5 μg/mL to 200 μg/mL): could inhibit the biofilm formation in a dose-dependent manner | formation of biofilm, FITC staining ([3]; LP4C 5-200 μg/mL vs Vehicle Treatment Group): suppressed the formation of biofilm in a dose-dependent manner | concentration at which biofilm formation was still inhibited ([3]; inhibited even at this concentration): 5 µg/mL | non-toxic concentration relative to anti-biofilm concentration [4, 9]: at least 40 times | cell viability (CCK-8) [4, 10]: the cell viability was not affected | non-toxic concentration relative to anti-biofilm concentration [5, 9]: at least 40 times | cell viability (CCK-8) [5, 10]: the cell viability was not affected | number of bacterial revertant colonies vs DMSO negative control ([6]; LP4C 50 μg/plate to 5000 μg/plate): did not increase | mutagenic potential ([6]; LP4C 50 to 5000 μg/plate, ±S9): no obvious mutagenic potential | expression of pyr genes [7]: could inhibit the expression of pyr genes significantly | most enriched pathway of DEGs (transcriptome) [8]: the DEGs number of pyrimidine metabolism was the most enriched
